In ChEMBL document CHEMBL4627246, “Pyroglutamide-Based P2X7 Receptor Antagonists Targeting Inflammatory Bowel Disease” (J Med Chem, 2020):

What follows are molecules tested on RXF 393 (assay: Cytotoxicity against human RXF393 cells assessed as effect on cell growth at 10 uM incubated for 48 hrs by sulforhodamine B assay). Conditions: rxf 393, 48 h.
Assay type: cell-based
In the case of COc1ccccc1CN1C(=O)[C@@H]2C/C(=C\N(C)C)C(=O)N2C1N(C)C (stereo not given in full), the Activity was “Non-Toxic”. In the case of O=C(NCc1ccccc1Cl)[C@@H]1CCC(=O)N1Cc1ccc(Cl)cc1, the Activity was “Non-Toxic”. O=C(NCCc1ccc(Cl)cc1Cl)[C@@H]1CCC(=O)N1c1ccccc1 was tested, and the Activity was “Non-Toxic”.

These molecules were tested on MDA-MB-231 (assay: Cytotoxicity against human MDA-MB-231 cells assessed as effect on cell growth at 10 uM incubated for 48 hrs by sulforhodamine B assay). Conditions: mda-mb-231, 48 h.
Assay type: cell-based
In the case of COc1ccccc1CN1C(=O)[C@@H]2C/C(=C\N(C)C)C(=O)N2C1N(C)C (stereo not given in full), the Activity was “Non-Toxic”. O=C(NCc1ccccc1Cl)[C@@H]1CCC(=O)N1Cc1ccc(Cl)cc1 was tested, and the Activity was “Non-Toxic”. O=C(NCCc1ccc(Cl)cc1Cl)[C@@H]1CCC(=O)N1c1ccccc1 was tested, and the Activity was “Non-Toxic”.

Each molecule was assayed on SF-268 (assay: Cytotoxicity against human SF268 cells assessed as effect on cell growth at 10 uM incubated for 48 hrs by sulforhodamine B assay). Conditions: sf-268, 48 h.
Assay type: cell-based
With COc1ccccc1CN1C(=O)[C@@H]2C/C(=C\N(C)C)C(=O)N2C1N(C)C (stereo not given in full) the Activity was “Non-Toxic”. O=C(NCc1ccccc1Cl)[C@@H]1CCC(=O)N1Cc1ccc(Cl)cc1 was tested, and the Activity was “Non-Toxic”. For O=C(NCCc1ccc(Cl)cc1Cl)[C@@H]1CCC(=O)N1c1ccccc1, the Activity was “Non-Toxic”.

Each molecule was assayed on LOX IMVI (assay: Cytotoxicity against human LOXIMVI cells assessed as effect on cell growth at 10 uM incubated for 48 hrs by sulforhodamine B assay). Conditions: not given.
Assay type: cell-based
With COc1ccccc1CN1C(=O)[C@@H]2C/C(=C\N(C)C)C(=O)N2C1N(C)C (stereo not given in full) the Activity was “Non-Toxic”. In the case of O=C(NCc1ccccc1Cl)[C@@H]1CCC(=O)N1Cc1ccc(Cl)cc1, the Activity was “Non-Toxic”. For O=C(NCCc1ccc(Cl)cc1Cl)[C@@H]1CCC(=O)N1c1ccccc1, the Activity was “Non-Toxic”.

The molecules below were run on K562 (assay: Cytotoxicity against human K562 cells assessed as effect on cell growth at 10 uM incubated for 48 hrs by sulforhodamine B assay). Conditions: k562, 48 h.
Assay type: cell-based
COc1ccccc1CN1C(=O)[C@@H]2C/C(=C\N(C)C)C(=O)N2C1N(C)C (stereo not given in full) was tested, and the Activity was “Non-Toxic”. O=C(NCc1ccccc1Cl)[C@@H]1CCC(=O)N1Cc1ccc(Cl)cc1 was tested, and the Activity was “Non-Toxic”. O=C(NCCc1ccc(Cl)cc1Cl)[C@@H]1CCC(=O)N1c1ccccc1 was tested, and the Activity was “Non-Toxic”.

Each molecule was assayed on NCI-H226 (assay: Cytotoxicity against human NCI-H226 cells assessed as effect on cell growth at 10 uM incubated for 48 hrs by sulforhodamine B assay). Conditions: nci-h226, 48 h.
Assay type: cell-based
With COc1ccccc1CN1C(=O)[C@@H]2C/C(=C\N(C)C)C(=O)N2C1N(C)C (stereo not given in full) the Activity was “Non-Toxic”. For O=C(NCc1ccccc1Cl)[C@@H]1CCC(=O)N1Cc1ccc(Cl)cc1, the Activity was “Non-Toxic”. In the case of O=C(NCCc1ccc(Cl)cc1Cl)[C@@H]1CCC(=O)N1c1ccccc1, the Activity was “Non-Toxic”.

The molecules below were run on SK-MEL-5 (assay: Cytotoxicity against human SK-MEL-5 cells assessed as effect on cell growth at 10 uM incubated for 48 hrs by sulforhodamine B assay). Conditions: sk-mel-5, 48 h.
Assay type: cell-based
For COc1ccccc1CN1C(=O)[C@@H]2C/C(=C\N(C)C)C(=O)N2C1N(C)C (stereo not given in full), the Activity was “Non-Toxic”. With O=C(NCc1ccccc1Cl)[C@@H]1CCC(=O)N1Cc1ccc(Cl)cc1 the Activity was “Non-Toxic”. With O=C(NCCc1ccc(Cl)cc1Cl)[C@@H]1CCC(=O)N1c1ccccc1 the Activity was “Non-Toxic”.

What follows are molecules tested on Hs-578T (assay: Cytotoxicity against human Hs 578T cells assessed as effect on cell growth at 10 uM incubated for 48 hrs by sulforhodamine B assay). Conditions: not given.
Assay type: cell-based
With COc1ccccc1CN1C(=O)[C@@H]2C/C(=C\N(C)C)C(=O)N2C1N(C)C (stereo not given in full) the Activity was “Non-Toxic”. O=C(NCc1ccccc1Cl)[C@@H]1CCC(=O)N1Cc1ccc(Cl)cc1 was tested, and the Activity was “Non-Toxic”. For O=C(NCCc1ccc(Cl)cc1Cl)[C@@H]1CCC(=O)N1c1ccccc1, the Activity was “Non-Toxic”.

These molecules were tested on CCRF-CEM (assay: Cytotoxicity against human CCRF-CEM cells assessed as effect on cell growth at 10 uM incubated for 48 hrs by sulforhodamine B assay). Conditions: not given.
Assay type: cell-based
With COc1ccccc1CN1C(=O)[C@@H]2C/C(=C\N(C)C)C(=O)N2C1N(C)C (stereo not given in full) the Activity was “Non-Toxic”. For O=C(NCc1ccccc1Cl)[C@@H]1CCC(=O)N1Cc1ccc(Cl)cc1, the Activity was “Non-Toxic”. For O=C(NCCc1ccc(Cl)cc1Cl)[C@@H]1CCC(=O)N1c1ccccc1, the Activity was “Non-Toxic”.

Each molecule was assayed on MDA-MB-435 (assay: Cytotoxicity against human MDA-MB-435 cells assessed as effect on cell growth at 10 uM incubated for 48 hrs by sulforhodamine B assay). Conditions: mda-mb-435, 48 h.
Assay type: cell-based
COc1ccccc1CN1C(=O)[C@@H]2C/C(=C\N(C)C)C(=O)N2C1N(C)C (stereo not given in full) was tested, and the Activity was “Non-Toxic”. For O=C(NCc1ccccc1Cl)[C@@H]1CCC(=O)N1Cc1ccc(Cl)cc1, the Activity was “Non-Toxic”. In the case of O=C(NCCc1ccc(Cl)cc1Cl)[C@@H]1CCC(=O)N1c1ccccc1, the Activity was “Non-Toxic”.

Each molecule was assayed on CAKI-1 (assay: Growth inhibition of human Caki1 cells assessed as growth percentage at 10 uM incubated for 48 hrs by sulforhodamine B assay). Conditions: caki-1, 48 h.
Assay type: cell-based
COc1ccccc1CN1C(=O)[C@@H]2C/C(=C\N(C)C)C(=O)N2C1N(C)C (stereo not given in full) was tested, and the Activity was “Non-Toxic”. O=C(NCc1ccccc1Cl)[C@@H]1CCC(=O)N1Cc1ccc(Cl)cc1 was tested, and the Activity was “Non-Toxic”. With O=C(NCCc1ccc(Cl)cc1Cl)[C@@H]1CCC(=O)N1c1ccccc1 the Activity was “Non-Toxic”.

These molecules were tested on BT-549 (assay: Cytotoxicity against human BT549 cells assessed as effect on cell growth at 10 uM incubated for 48 hrs by sulforhodamine B assay). Conditions: bt-549, 48 h.
Assay type: cell-based
COc1ccccc1CN1C(=O)[C@@H]2C/C(=C\N(C)C)C(=O)N2C1N(C)C (stereo not given in full) was tested, and the Activity was “Non-Toxic”. With O=C(NCc1ccccc1Cl)[C@@H]1CCC(=O)N1Cc1ccc(Cl)cc1 the Activity was “Non-Toxic”. O=C(NCCc1ccc(Cl)cc1Cl)[C@@H]1CCC(=O)N1c1ccccc1 was tested, and the Activity was “Non-Toxic”.

The molecules below were run on SK-MEL-28 (assay: Cytotoxicity against human SK-MEL-28 cells assessed as effect on cell growth at 10 uM incubated for 48 hrs by sulforhodamine B assay). Conditions: sk-mel-28, 48 h.
Assay type: cell-based
With COc1ccccc1CN1C(=O)[C@@H]2C/C(=C\N(C)C)C(=O)N2C1N(C)C (stereo not given in full) the Activity was “Non-Toxic”. For O=C(NCc1ccccc1Cl)[C@@H]1CCC(=O)N1Cc1ccc(Cl)cc1, the Activity was “Non-Toxic”. With O=C(NCCc1ccc(Cl)cc1Cl)[C@@H]1CCC(=O)N1c1ccccc1 the Activity was “Non-Toxic”.

The molecules below were run on MCF7 (assay: Cytotoxicity against human MCF7 cells assessed as effect on cell growth at 10 uM incubated for 48 hrs by sulforhodamine B assay). Conditions: mcf7, 48 h.
Assay type: cell-based
COc1ccccc1CN1C(=O)[C@@H]2C/C(=C\N(C)C)C(=O)N2C1N(C)C (stereo not given in full) was tested, and the Activity was “Non-Toxic”. In the case of O=C(NCc1ccccc1Cl)[C@@H]1CCC(=O)N1Cc1ccc(Cl)cc1, the Activity was “Non-Toxic”. With O=C(NCCc1ccc(Cl)cc1Cl)[C@@H]1CCC(=O)N1c1ccccc1 the Activity was “Non-Toxic”.

The molecules below were run on OVCAR-4 (assay: Cytotoxicity against human OVCAR4 cells assessed as effect on cell growth at 10 uM incubated for 48 hrs by sulforhodamine B assay). Conditions: ovcar-4, 48 h.
Assay type: cell-based
With COc1ccccc1CN1C(=O)[C@@H]2C/C(=C\N(C)C)C(=O)N2C1N(C)C (stereo not given in full) the Activity was “Non-Toxic”. With O=C(NCc1ccccc1Cl)[C@@H]1CCC(=O)N1Cc1ccc(Cl)cc1 the Activity was “Non-Toxic”. For O=C(NCCc1ccc(Cl)cc1Cl)[C@@H]1CCC(=O)N1c1ccccc1, the Activity was “Non-Toxic”.

What follows are molecules tested on UACC-257 (assay: Cytotoxicity against human UACC257 cells assessed as effect on cell growth at 10 uM incubated for 48 hrs by sulforhodamine B assay). Conditions: uacc-257, 48 h.
Assay type: cell-based
With COc1ccccc1CN1C(=O)[C@@H]2C/C(=C\N(C)C)C(=O)N2C1N(C)C (stereo not given in full) the Activity was “Non-Toxic”. In the case of O=C(NCc1ccccc1Cl)[C@@H]1CCC(=O)N1Cc1ccc(Cl)cc1, the Activity was “Non-Toxic”. With O=C(NCCc1ccc(Cl)cc1Cl)[C@@H]1CCC(=O)N1c1ccccc1 the Activity was “Non-Toxic”.

Each molecule was assayed on OVCAR-3 (assay: Cytotoxicity against human OVCAR3 cells assessed as effect on cell growth at 10 uM incubated for 48 hrs by sulforhodamine B assay). Conditions: ovcar-3, 48 h.
Assay type: cell-based
COc1ccccc1CN1C(=O)[C@@H]2C/C(=C\N(C)C)C(=O)N2C1N(C)C (stereo not given in full) was tested, and the Activity was “Non-Toxic”. For O=C(NCc1ccccc1Cl)[C@@H]1CCC(=O)N1Cc1ccc(Cl)cc1, the Activity was “Non-Toxic”. O=C(NCCc1ccc(Cl)cc1Cl)[C@@H]1CCC(=O)N1c1ccccc1 was tested, and the Activity was “Non-Toxic”.

What follows are molecules tested on SK-MEL-2 (assay: Cytotoxicity against human SK-MEL-2 cells assessed as effect on cell growth at 10 uM incubated for 48 hrs by sulforhodamine B assay). Conditions: sk-mel-2, 48 h.
Assay type: cell-based
With COc1ccccc1CN1C(=O)[C@@H]2C/C(=C\N(C)C)C(=O)N2C1N(C)C (stereo not given in full) the Activity was “Non-Toxic”. With O=C(NCc1ccccc1Cl)[C@@H]1CCC(=O)N1Cc1ccc(Cl)cc1 the Activity was “Non-Toxic”. In the case of O=C(NCCc1ccc(Cl)cc1Cl)[C@@H]1CCC(=O)N1c1ccccc1, the Activity was “Non-Toxic”.

These molecules were tested on SN12C (assay: Cytotoxicity against human SN12C cells assessed as effect on cell growth at 10 uM incubated for 48 hrs by sulforhodamine B assay). Conditions: not given.
Assay type: cell-based
With COc1ccccc1CN1C(=O)[C@@H]2C/C(=C\N(C)C)C(=O)N2C1N(C)C (stereo not given in full) the Activity was “Non-Toxic”. In the case of O=C(NCc1ccccc1Cl)[C@@H]1CCC(=O)N1Cc1ccc(Cl)cc1, the Activity was “Non-Toxic”. With O=C(NCCc1ccc(Cl)cc1Cl)[C@@H]1CCC(=O)N1c1ccccc1 the Activity was “Non-Toxic”.

What follows are molecules tested on HOP-62 (assay: Cytotoxicity against human HOP62 cells assessed as effect on cell growth at 10 uM incubated for 48 hrs by sulforhodamine B assay). Conditions: hop-62, 48 h.
Assay type: cell-based
With COc1ccccc1CN1C(=O)[C@@H]2C/C(=C\N(C)C)C(=O)N2C1N(C)C (stereo not given in full) the Activity was “Non-Toxic”. With O=C(NCc1ccccc1Cl)[C@@H]1CCC(=O)N1Cc1ccc(Cl)cc1 the Activity was “Non-Toxic”. O=C(NCCc1ccc(Cl)cc1Cl)[C@@H]1CCC(=O)N1c1ccccc1 was tested, and the Activity was “Non-Toxic”.
